Test results as given in patent publication US20040235086A1, “Detection of cellular contaminants in samples of non-living material” (priority 2001, published 2004).

Columns and labels:
[1] = test system: Hepatocyte cells; test: Microcalorimetric detection of heat production on uncoupling of oxidative phosphorylation in hepatocytes; format: cell-based
Experimental: Hepatocyte cells were grown on 37 degrees Celsius with 5% CO2, Rinsed with Versene, then loosened with EDTA-trypsine and washed with PBS. Concentration was 1,88. 10e7 cells/ml or about 28 000 cells in a well.
The uncoupler CCCF was dissolved in DMSO to a stock concentration of 100 mM, the diluted to 10 mM again in DMSO, and a final working concentration of 400 μM was diluted in H2O.
A sample of hepatocytes was introduced in the adjoining recipients (hereinafter referred to as top and bottom well) of a microcalorimeter. The thermopile, which is located between the two recipients allows the measurement of a minute temperature difference between the samples in each recipient by measuring a voltage difference. Sensitivity was determined to be 15 mV/K (10.7 V/W). The following procedure was used:
adding of 1.5 μl of hepatocyte solution was added to the top and bottom well of the microcalorimeter
0.5 μl of a 100 μM solution of uncoupler was added to the bottom well, while the same volume of the buffer solution was added to the top well
At its maximum (reached after 10 min), the voltage difference between the two wells was recorded. From this value, the temperature difference and the heat production difference could be determined.

[2] = test system: Escherichia coli bacteria
Experimental: The presence of living cells, including bacterial cells, in a sample can be detected by addition of hydrogen peroxide which will be degraded by catalase activity present in the cells, which causes heat production.
Escherichia coli bacteria were grown on 37° Celsius in Liquid Broth. Samples of bacteria are taken when growth is in the log fase and is estimated to be around 4.10e8 bacteria/ml, which corresponds to around 600 000 bacteria per well.
A 30% (w/w) hydrogen peroxide solution from Sigma was used directly.
Measurements were performed using a microcalorimeter. The top well was provided with 1.5 μl of the bacterial solution in LB, while the bottom well contained 1.5 μl LB only.
When a steady baseline was obtained (10 min) 0.5 μl of the hydrogen peroxide solution was added to each of the wells.

SMILES | maximum voltage difference between the two wells ([1]; 0.5 μl of 100 μM uncoupler solution added to 1.5 μl hepatocyte solution (about 28 000 cells/well), maximum reached after 10 min, vs buffer well) | heat production difference per cell ([1]; hepatocytes, based on number of cells added to each well) | temperature difference (voltage difference divided by sensitivity of the microcalorimeter) ([1]; hepatocytes, uncoupler well vs buffer well, sensitivity 15 mV/K) | maximum temperature difference ([2]; 0.5 μl of 30% (w/w) hydrogen peroxide added to 1.5 μl E. coli in LB (around 600 000 bacteria per well) vs LB only) | total enthalpy change ([2]; calculated from Tmax=ΔH/2C, heat capacity 10 mJ/K after addition of hydrogen peroxide)
N#CC(C#N)=NNc1cccc(Cl)c1 [CCCF, carbonylcyanide-3-chlorophenylhydrazone] | 800 μV | 3 nW | 50 mK | – | –
OO [hydrogen peroxide] | – | – | – | 400 mK | 80 mJ
